Source: ChEMBL document CHEMBL1150648, “Coproverdine, a novel, cytotoxic marine alkaloid from a new zealand ascidian” (J Nat Prod, 2002)
pIC50: −log10 of the molar value.

Legend:
Assay type in all cases: functional, cell-based
SK-MEL-28 = test: Cytotoxicity against human SK-MEL-28 cells
P388 = test: Cytotoxicity against mouse P388 cells
DU-145 = test: Cytotoxicity against human DU145 cells
HT-29 = test: Cytotoxicity against human HT-29 cells
A549 = test: Cytotoxicity against human A549 cells

For `COC(=O)c1cccc2c3c(n(O)c12)C(O)(C=O)C=CC3=O` (stereo not given) [COPROVERDINE], the pIC50 (SK-MEL-28) was 6.52, the pIC50 (P388) was 5.80 and the pIC50 (DU-145) was 6.52. For the same compound, the pIC50 (HT-29) was 6.52 and the pIC50 (A549) was 6.52.
